Where a name gives a salt, the structure may show the parent alone.
Test system: passive cutaneous anaphylaxis using rat homocytotropic antibody
Test: rat passive cutaneous anaphylaxis test (rat PCA test)
Assay type: in vivo
Procedure: The technique employed to establish the anti-allergic activity of the 1H-tetrazole-5-carboxamide derivatives is reported in Immunology, vol. 16, pp. 749-760 (1969) and involves four male Charles River rats (200-250 grams body weight) per group to provide a control, a host for administration of a standard anti-allergic compound (disodium cromoglycate) and animals for the test compound. The rats were injected intracutaneously on their shaved backs with sera from rats immunized with egg albumin and pertussis vaccine. Twenty-four hours after the initial injections, the test compound is administered intraperitoneally or orally at a dosage level of 200 milligrams per kilogram host body weight or less. Five minutes later one milliliter of a 0.5 percent solution of Evans blue dye and 8 milligrams of egg albumin is injected intravenously. After 40 minutes, the animal is sacrificed and the bleb size on its back is measured. The mean bleb size for the animals administered the test compound is calculated and the percent inhibition is determined by comparison with the control animal.
In other words, the compounds of this invention block the release of mediators commonly resulting from the antigen-antibody reaction as exemplified in a passive cutaneous anaphylaxis test (PCA) using rat homocytotropic antibody -- a known correlate of human reaginic antibody.

For `O=C(Nc1ccccn1)c1nn[nH]n1` [Example 1, N-(2-Pyridinyl)-1H-tetrazole-5-carboxamide, sodium salt], the “% inhibition” value (intraperitoneal (i.p.), dose 1.0 mg/kg) was 82.6%, the “% inhibition” value (intraperitoneal (i.p.), dose 10 mg/kg) was 99.0% and the “% inhibition” value (intraperitoneal (i.p.), dose 100 mg/kg) was 72.5%. The “% inhibition” value (intraperitoneal (i.p.), dose .01 mg/kg) was 24.8%, the “% inhibition” value (intraperitoneal (i.p.), dose .1 mg/kg) was 41.9% and the “% inhibition” value (oral (p.o.), dose 1 mg/kg) was 62.6%. The “% inhibition” value (oral (p.o.), dose 10 mg/kg) was 94.8%, the “% inhibition” value (oral (p.o.), dose 100 mg/kg) was 100.0% and the “% inhibition” value (oral (p.o.), dose .01 mg/kg) was 40.4%. The “% inhibition” value (oral (p.o.), dose .1 mg/kg) was 25.1%.

— patent US4112101A, “N-(Pyridyl)-1H-(or 2H) tetrazole-5-carboxamide derivatives for the prevention of immediate type hypersensitivity reactions” (American Home Products Corporation, priority 1977, dated 1978)
